The text below walks through data of patent US20240207258A1, “HETEROCYCLIC PDK1 INHIBITORS FOR USE TO TREAT CANCER” (Viracta Therapeutics, Inc., priority 2015, published 2024).

Test [1] has as its system pRSK2. Description: Western blot, RSK2 phosphorylation in KG-1 cells. In kind it is cell-based. Conditions: Homo sapiens; KG-1, 100 nM; read-out: inhibition of pRSK2 levels. As to the method:
(§1) For phosphoprotein analyses, cells were seeded into 10 cm petri dishes (10×10^6 cells/dish) in media supplemented with 10% FBS and penicillin/streptomycin. After cells recovered for 1 hr at 37° C., compounds were added in DMSO (0.1% final) and incubated for 4 or 24 hr at 37° C. Cells were then harvested by centrifugation and washed with cold PBS. Cell pellets were resuspended in cell extraction buffer (Invitrogen) supplemented with 2×Halt™ protease and phosphatase inhibitor cocktail (Thermo Scientific), 2 mM sodium orthovanadate, 10 mM EDTA and 4 mM PMSF. Samples were lysed by sonication and incubated on ice for 30 min. Cell debris was removed by centrifugation and protein concentrations were determined using the BCA Protein Assay Kit (Pierce). The clarified lysate was diluted in LDS sample buffer with reducing agent (Life Technologies). After heating to 70° C. samples were cooled and loaded onto 4-12% Bis-Tris gels (Life Technologies) at 50 μg/well. Gels were run at 110 V and proteins were transferred to a PVDF membrane. Membranes were blocked in TBS blocking buffer (Li-Cor Biosciences) for 1 hr. Primary antibodies (Cell Signaling, Sant Cruz Biotechnology) were added (1:1,000 dilution) in blocking buffer with 0.1% Tween-20 and 1:20,000 dilution of β-actin antibody and incubated for 14 hr at 4° C. […] Bands were quantitated using ImageJ.

Test [2] concerns pPDK1. Description: Western blot, PDK1 phosphorylation in KG-1 cells. It counts as cell-based. Conditions: Homo sapiens; KG-1, 100 nM; read-out: inhibition of pPDK1 levels. As to the method:
as §1

Test [3] relates to P-RSK2. Put plainly: Western blot, RSK2 phosphorylation in C1498 cells. In kind it is cell-based, murine. Particulars: C1498, 30-100 nM range. As for the experimental part: as §1, with “After heating to 70° C. samples were cooled and loaded onto 4-12% Bis-Tris gels (Life Technologies) at 50 μg/well.” left out
In general terms: In western blotting, separated proteins are transferred to a membrane and probed.

Test [4] has as its system P-RSK2. Description: Western blot, RSK2 phosphorylation in A20 cells. Conditions: Mus musculus; A20, 300 nM. In kind it is cell-based, murine. As for the experimental part:
as §1

Test [5] has as its system MV4-11 cells. Description: Induction of apoptosis (Annexin V / propidium iodide flow cytometry). It counts as cell-based, human. As for the experimental part: Cells were seeded in a six-well tissue culture plate in 3 mL complete growth medium (3×10^5 cells/well) and allowed to equilibrate for 1 hr at 37° C. in a humidified incubator with 5% CO2. DMSO (control), test compound, or doxorubicin was added to the wells (0.1% final DMSO concentration). Cells were returned to the incubator for 24 hrs. On the day of analysis 1×10^5 cells were labeled according to manufacturer's instructions and analyzed by flow cytometry (BD FACSCaalibur™, GH) to determine the percent of apoptotic cells (annexin V positive, AV+) and/or apoptotic dead cells (AV+ and propidium iodide positive (PI+)).
Background: A flow cytometer gives signals particle by particle.

Test [6] concerns P-PDK1. Put plainly: Western blot, PDK1 phosphorylation in A20 cells. In kind it is cell-based, murine. As for the experimental part:
as §1, with “After heating to 70° C. samples were cooled and loaded onto 4-12% Bis-Tris gels (Life Technologies) at 50 μg/well.” left out

Test [7] concerns P-AKT. Put plainly: Western blot, AKT phosphorylation in A20 cells. It counts as cell-based, murine. As for the experimental part: (§2) For phosphoprotein analyses, cells were seeded into 10 cm petri dishes (10×10^6 cells/dish) in media supplemented with 10% FBS and penicillin/streptomycin. After cells recovered for 1 hr at 37° C., compounds were added in DMSO (0.1% final) and incubated for 4 or 24 hr at 37° C. Cells were then harvested by centrifugation and washed with cold PBS. Cell pellets were resuspended in cell extraction buffer (Invitrogen) supplemented with 2×Halt™ protease and phosphatase inhibitor cocktail (Thermo Scientific), 2 mM sodium orthovanadate, 10 mM EDTA and 4 mM PMSF. Samples were lysed by sonication and incubated on ice for 30 min. Cell debris was removed by centrifugation and protein concentrations were determined using the BCA Protein Assay Kit (Pierce). The clarified lysate was diluted in LDS sample buffer with reducing agent (Life Technologies). […] Gels were run at 110 V and proteins were transferred to a PVDF membrane. Membranes were blocked in TBS blocking buffer (Li-Cor Biosciences) for 1 hr. Primary antibodies (Cell Signaling, Sant Cruz Biotechnology) were added (1:1,000 dilution) in blocking buffer with 0.1% Tween-20 and 1:20,000 dilution of β-actin antibody and incubated for 14 hr at 4° C. Blots were washed in TBS-T. Label-conjugated goat anti-rabbit secondary antibody (IRdye® 800CW; Li-Cor Biosciences) was added in blocking buffer with 0.1% Tween-20 and 0.02% SDS and incubated for 1 hr. After washing in TBS-T followed by TBS, membranes were scanned on an Odyssey imaging system (Li-Cor Biosciences). Bands were quantitated using ImageJ.

For test [8], the system named is P-PDK1. Put plainly: Western blot, PDK1 phosphorylation in MV4-11 cells. It counts as cell-based, human. As to the method:
as §2

For test [9], the system named is P-PDK1. Description: Western blot, PDK1 phosphorylation in C1498 cells. In kind it is cell-based, murine. Particulars: C1498, 30-100 nM range. As to the method:
as §1, with “After heating to 70° C. samples were cooled and loaded onto 4-12% Bis-Tris gels (Life Technologies) at 50 μg/well.” left out

In test [10] the test system is PDK1 and RSK2 phosphorylation. Put plainly: Western blot pathway modulation, summary over cell lines. It counts as cell-based. As to the method: as §1, with “After heating to 70° C. samples were cooled and loaded onto 4-12% Bis-Tris gels (Life Technologies) at 50 μg/well.” left out

On to `C[C@H](NC(=O)c1nc(C#N)cnc1NCc1ccc(-c2cnc3[nH]nc(N)c3n2)cc1)c1ccc(F)c(F)c1` [Compound 1, 3-[4-(3-Amino-1H-pyrazolo[3,4-b]pyrazin-5-yl)-benzylamino]-6-cyano-pyrazine-2-carboxylic acid [1-(3,4-difluoro-phenyl)-ethyl]-amide], for which the inhibition at 0.1 µM in test [1] and in [2] was greater than 80% each time.
In test [3], `CNc1n[nH]c2ncc(-c3ccc(CNc4ncc(C#N)nc4C(=O)N[C@@H](C)c4ccc(F)c(F)c4)cc3)cc12` [Compound 2, 6-Cyano-3-[4-(3-methylamino-1H-pyrazolo[3,4-b]pyridin-5-yl)-benzylamino]-pyrazine-2-carboxylic acid [1-(3,4-difluoro-phenyl)-ethyl]-amide] had a P-RSK2 inhibition greater than 90%. The inhibition at 0.3 µM in test [4] is greater than 90%. For the same molecule, the “apoptosis at 100 nM” value in [5] (100 nM) is “induces apoptosis”. In addition, the “apoptosis after 24 hours” value in test [5] (24 hours) is “substantial apoptosis”. Further, the P-PDK inhibition plateau in test [6] is 70%. In [7], the “P-AKT levels” value is listed as “sensitive”. Moreover, testing at 0.03 µM in test [8] (Homo sapiens, MV4-11, FIG. 6C, 30 nM, 4 hrs) gave an inhibition of 40%. Besides, the inhibition at 0.1 µM in test [8] (Homo sapiens, MV4-11, 100 nM) amounted to 90%. In addition, in test [8] (MV4-11, 30 nM), the “fold decrease in PDK1 phosphorylation between 4 hr and 24 hr exposure” value came out at 5 fold. The P-PDK1 inhibition in test [9] is roughly 80%. In test [10], the “fold more inhibition of PDK1 phosphorylation after 24 hours than 4 hours” value is given as 2-5 fold. Moreover, the “fold more potent than GSK-2334470 in inhibiting phosphorylation of both PDK1 and RSK2” value in [10] (MV4-11, FIG. 6) came out at 10 fold.

One may read the inhibition as the change of the read-out against control, counted positive when it falls.
